Measurements: patent US8349792B2, “Combination comprising CNDAC (2′-cyano-2′-deoxy-N4-palmitoyl-1-beta-D-arabinofuranosyl-cytosine) and a cytotoxic agent” (priority 2006, dated 2013)

Tests used:
H358 cells = experiment: H358 xenograft tumour growth; format: in vivo, mice (nu/nu); conditions: for mean tumour volume: day 22, sapacitabine 15 mg/kg oral, irinotecan 50 mg/kg i.p. weekly, SAHA 50 mg/kg oral
Description: Female mice (nu/nu) were obtained from Harlan. Animals were injected subcutaneously with ˜1×10^7 H358 cells/mouse at a single site on their flanks. Tumours were allowed to grow to ˜127 mm^3 before being pair-matched by tumour size into treatment groups (10 mice/group). One group was treated with sapacitabine (15 mg/kg) once daily by oral gavage for five consecutive days followed by a two day break; the treatment was then repeated for a total of three cycles. Irinotecan (50 mg/kg) was treated once weekly by intraperitoneal injection for three weeks. […] Mice were weighed at least twice a week to assess toxicity of the treatments and the tumours were measured with calipers at least twice a week to determine tumour growth. The tumour measurements were converted into volumes using the formula: tumour volume (mm^3)=width^2 (mm)×length (mm)×0.52. The percent tumour growth inhibition was determined with the formula: 1−(Change in treated tumour volume/change in control tumour volume)×100%. Statistical significance was determined using a two sided unpaired Student's T-test.

p388 mouse leukaemia = p388 mouse leukaemia xenograft, survival; format: in vivo; conditions: P388 mouse model; CYC682 20 mg/kg PO QD×5×2, SAHA 75 mg/kg IP QD×12; compared to vehicle control
Description: The p388 mouse leukaemia xenograft assesses drug combinations by the survival times of the mice in the various treatment arms.

Hut78 cells [1] = experiment: Flow cytometry, propidium iodide DNA content (sub-G1); format: cell-based; conditions: for sub-G1 cells, dose dependence: 0.5×-2×IC50, 72 h; for sub-G1 cells, time dependence: 1×IC50, 16, 24, 48 or 72 h
Description: (§1) Hut78 cells were seeded in 10 cm plates at approximately 5×10^5 cells/plate and left to settle for 2 h. […] After treatment, cells were harvested and cell cycle analysis was carried our. Cells were pelleted by centrifugation, washed twice in PBS and then fixed overnight in 70% (v/v) ethanol at −20° C. Cells were stained with 50 μg/ml propidium iodide for 20 min and the DNA content analysed on the flow cytometer. Annexin V staining was performed as indicated in manufacturer's instructions, on live, non-fixed cells.
After drug treatment, cells were then harvested, stained with propidium iodide and their DNA content analysed by flow cytometry.
After treatment, cells were then harvested, stained with propidium iodide and their DNA content analysed by flow cytometry.

Hut78 cells [2] = experiment: Flow cytometry, Annexin V staining; format: cell-based; conditions: IC50, 24 h, 48 h or 72 h
Description: as §1
Cells were then harvested, stained with annexin V and analysed on the flow cytometer. Data are representative of two independent experiments. Annexin V labels live cells that are undergoing apoptosis or already dead. […] The synergy detected in the calcusyn analysis (Table 1) is therefore likely to be mainly due to inhibition of cell proliferation.

Hut78 cells [3] = experiment: Western blotting analysis in Hut78 cells; format: cell-based; conditions: 1×IC50, western blot
Description: Protein lysates were generated from 10 cm plates that were seeded at approximately 5×10^5 cells/well, in medium containing 10% FCS. […] Cells were collected by centrifugation (5 min×2,000 g), washed once with ice-cold buffer A (50 mM HEPES, pH 7.0, 20 mM NaCl, 1 mM DTT, protease inhibitors, 10 mM Sodium pyrophosphate, 10 mM Sodium Fluoride and 1 mM Sodium Orthovanadate), and resuspended in 0.3 ml of the same buffer. Cells were lysed by sonication (2×3 s bursts with probe sonicator), and the protein concentration of each tube determined using the BCA assay. Lysates (20-30 μg protein loaded/well) were resolved on Bis-Tris gels containing 10 or 12% acrylamide and transferred to nitrocellulose for analysis by western blotting. Membranes were blocked for 1 h at room temperature in PBS containing 0.02% (v/v) Tween 20 and 5% (w/v) fat-free dried milk. Antibody incubations were carried out overnight at 2-8° C. in PBS containing 0.02% (v/v) Tween 20 (PBST) containing 3% (w/v) dried milk. Nitrocellulose membranes were probed with the following antibodies:
Membranes were then washed three times in PBST, and then incubated for 1 h with the appropriate horseradish peroxidase-conjugated secondary antibody (Perbio) at 1:5,000 dilution. Finally, the membranes were washed three times in PBST prior to development using an enhanced chemiluminescence kit (Amersham Corporation, Buckinghamshire, U.K.) or the Millipore Immobilon HRP substrate.
Cells were harvested and the resulting cell lysates analysed by western blotting with the indicated antibodies. Data are representative of two independent experiments (FIG. 5). […] Homologous recombination is one of the major repair pathways for double strand DNA breaks, and RAD51 plays a key role in homologous recombination.

Hut78 cells [4] = experiment: 72 h IC50 by Alamar blue assay in Hut78; format: cell-based; conditions: read-out: 1×IC50 value in Hut78 cells
Description: Experiments were carried out in 96-well plates and the cell lines seeded at a density of 2500/well for H1299, 2500/well or 3000/well for H460, 5000/well for HL-60 cells, and 8,000 cells/well for Hut78, MV4-11 and PL-21 cells. […] Each compound was then tested in combination with CNDAC using three different treatment regimes: concomitant, CNDAC pre-treatment followed by HDAC inhibitor/topoisomerase inhibitor and CNDAC treatment after pre-treatment with HDAC inhibitor/topoisomerase inhibitor.

colon cancer = conditions: model of colon cancer, cited from earlier work
[5] = human, in vivo; cited from earlier work

## CCc1c2c(nc3ccc(OC(=O)N4CCC(N5CCCCC5)CC4)cc13)-c1cc3c(c(=O)n1C2)COC(=O)[C@]3(O)CC [irinotecan]
H358 cells; day 22
  tumour growth inhibition (% TGI): ~75%

## O=C(CCCCCCC(=O)Nc1ccccc1)NO [SAHA, suberoylanilide hydramic acid, reference compound]
p388 mouse leukaemia
  survival: very little effect on survival
Hut78 cells [1]
  sub-G1 cells, dose dependence: little effect on the cell cycle, except at 2×IC50, where it induced a small increase in sub-G1 cells
  sub-G1 cells, time dependence: small increase in sub-G1 cells
H358 cells; day 22
  effect on tumour growth (in words): no effect on tumour growth
H358 cells
  mean tumour volume: 517 mm^3
Hut78 cells [2]
  apoptotic/dead cells (annexin V): negligible increase in dead/dying cells
Hut78 cells [3]
  Acetyl-histone H4: increase in Acetyl-histone H4

## N#C[C@H]1[C@H](O)[C@@H](CO)O[C@H]1n1ccc(N)nc1=O [CNDAC, 1-(2-C-cyano-2-deoxy-β-D-arabino-pentafuranosyl)-cytosine]
Hut78 cells [1]
  sub-G1 cells, dose dependence: dose-dependent increase in sub-G1 cells
  sub-G1 cells, time dependence: time-dependent increase in sub-G1 cells that became apparent by 48 h treatment
Hut78 cells [1]; 1×IC50, by 72 h
  sub-G1 cells, share of the cell population: ~30%
Hut78 cells [4]
  IC50: 360 nM
Hut78 cells [2]
  apoptotic/dead cells (annexin V): time-dependent increase in apoptotic/dead cells
Hut78 cells [3]
  H2A.X phosphorylation at serine 139: increase in H2A.X phosphorylation at serine 139
  Mcl-1: decrease in Mcl-1

## CCCCCCCCCCCCCCCC(=O)Nc1ccn([C@@H]2O[C@H](CO)[C@@H](O)[C@@H]2C#N)c(=O)n1 [sapacitabine, 2′-cyano-2′-deoxy-N^4-palmitoyl-1-β-D-arabinofuranosylcytosine]
p388 mouse leukaemia
  survival: significant increase in the survival time
Colon cancer
  anticancer activity: strong anticancer activity
Colon cancer; versus gemcitabine or 5-FU
  increasing survival and preventing the spread of colon cancer metastases to the liver: superior to either gemcitabine or 5-FU
H358 cells; day 22
  tumour growth inhibition (% TGI): ~75%
H358 cells
  mean tumour volume: 229 mm^3
[5]
  tolerability, dose limiting toxicity: well tolerated in humans, with myelosuppression as the dose limiting toxicity
